Test results as given in US5473074A, “Adenosine diphosphoribose polymerase binding nitroso aromatic compounds useful as retroviral inactivating agents, anti-retroviral agents and anti-tumor agents-54” (priority 1992, dated 1995).
Entries after “also recorded” stand apart in the source; their conditions may differ.

How the values were obtained:
[1] = system: human leukemia cell lines (855-2, H9, HL-60, K562); test: [3H]thymidine uptake, human leukemia cell lines (FIG. 2); type: cell-based
Description: FIGS. 2A-2F are composite of graphs displaying the inhibitory effects of the ADRPT ligands on (FIG. 2A) 855-2 cells (a cell line of human B-cell lineage acute lymphoblastic leukemia), (FIG. 2B) H9 cells (a cell line of human T-cell lineage acute lymphoblastic leukemia), (FIG. 2C) HL-60 cells (a cell line of human acute nonlymphoblastic leukemia) and (FIG. 2D) K562 cells (a cell line of human chronic myelogenous leukemia). These cells were cultured while under the influence of the growth factors in 10% fetal bovine serum (FCS), whereas in (FIG. 2E) and (FIG. 2F) the 855-2 cells were cultured in the presence of autocrine growth factor activity (AGF) or low molecular weight-B-cell growth factor (BCGF, a T-cell derived lymphokine), respectively.

HIV-1 = test: Anti-HIV action on stimulated human lymphoblasts, virus titer; type: cell-based; conditions: 10 μM; 30 min exposure; virus alone 5.25
Description: VIII. Anti-HIV action of NOBP, NOBA and NOQ on stimulated human lymphoblasts
Exposure to the two drugs was only for 30 minutes at the commencement of viral infection, and drugs were never re-added. The results given in Table III provide the ID50 of HIV titer 10 days after infection of cell cultures with HIV.

[2] = target: Zn(HIV1-F1)-oligonucleotide complex (Human immunodeficiency virus type 1 lw12.3 isolate, UniProt Q70622); test: NMR studies of Zn(HIV1-F1) nucleic acid binding; type: biochemical, HIV-1; conditions: two equivalents of NOBA (FIG. 11)
Excerpt: The downfield regions of the spectra show the signals of the aromatic and ribose H1' protons, and the upfield region contain signals of the methyl group protons. Dramatic spectral changes occur upon addition of oligonucleotide to Zn(HIV1-F1), including large upfield shifts of the Phe 2 and Ile 10 side chain=n signals and a downfield shifting and broadening of the guanosine-H8 proton signal (second from the top).
The reaction mechanism, schematically illustrated in FIG. 12, is consistent with the result of NMR analysis in FIGS. 10 and 11. The reaction mechanism proposed in FIG. 12 is a useful model but is not intended to limit the scope of the claimed invention.

H9 cells = test: [3H]thymidine uptake, H9 cells; type: cell-based, human; conditions: 10% FCS
855-2 cells [3] = test: Colony formation (CFU) in semi-solid medium, 855-2; type: cell-based, human; conditions: single cells in semi-solid medium
855-2 cells [4] = test: [3H]thymidine uptake / growth, 855-2 cells; type: cell-based, human
[5] = system: HIV-1 (MN strain) virions; test: Zinc loss from HIV-1 virions treated with NOBA; type: biochemical
Description: Experiments were performed to determine if NOBA is capable of ejecting zinc from intact virions. HIV-1 (MN strain) was produced, purified and concentrated as described in Bess et al., J. Virol. 66:840-847 (1992). The concentrated virus was diluted to 60 times that of culture fluid in TNE buffer (0.01M Tris-HCl, 0.1M NaCl, 1 mM EDTA, pH 7.2) and incubated with 3000 or 6000 μM NOBA at 37° C. The virus was then pelleted and washed with TNE buffer to remove weakly bound zinc. The quantity of zinc in the resulting viral pellets was determined as described in Bess et. al., J. Virol. 66:840-847 (1992).

HL-60 cells = test: Colony formation (CFU) in semi-solid medium, HL-60; type: cell-based, human; conditions: single cells in semi-solid medium
[6] = system: normal cells (neutrophil leukocytes and bone marrow or peripheral blood stem cells); test: Functions/viability of normal cells in absence or presence of compounds
Description: Experiments were performed in which the functions of various cancer cells (855-2 and HL-60 leukemia cells, D32, D37 and CRL 7712 glioblastoma cell lines, 186 medulla tumor cell line, L1210 murine leukemia cell line, MDA-468 human breast tumor cell line) and normal cells (neutrophil leukocytes and bone marrow or peripheral blood stream cells) were assessed in the absence or presence of the compounds.

HIV-1 (LAV strain) = test: HIV-1 inactivation assay in PHA-stimulated PBL (FIG. 13A, B); type: cell-based
Description: The assay was performed as described in FIG. 13A except that the 30 min. preincubation of virus with NOBA was carried out at 0, 22 or 37° C.
An HIV-1 stock having an infectivity titer of 100,000 TCID50 was incubated for 30 min. at 22° C. with either of the drugs. Control HIV samples, containing no drugs, were incubated in the same manner. […] At the end of this incubation cultures were assayed for productive infection by an immunoassay for HIV-1 antigens and by reverse transcriptase as described in McDougal, et al., J. Immunol Methods 76:171-183 (1985). Virus titers were expressed as percentile values (percent infected cultures) compared to the controls, containing HIV dilutions which were not preincubated with the C-nitroso drugs. In a separate series of experiments, HIV-1 dilutions and C-nitroso drugs (see upper abscissa) were not preincubated but were added simultaneously to lymphocytes in exactly the same concentrations as described previously (i.e., following preincubation) and viral growth monitored 9 days later. […] Chem. Soc. 111:395-396 (1989), South, et al., Biochem Pharm. 40:123-129 (1990), Summers, et al., Biochemistry 29:329-340 (1990), the inhibition of HIV-1 propagation was profound when C-nitroso drugs were preincubated with HIV-1, whereas only negligible effect on HIV-1 growth occurred when both drugs and virus were added simultaneously.
Experiments were performed in which the incubations with NOBA was carried out at 0°, 22°, and 37° C. […] In agreement with the negligible cytotoxic effect of C-nitroso drugs on non-tumor cells described elsewhere in this application, human lymphocytes tolerated NOBA up to 50 μM without major changes in cell metabolism, which was assayed by quantitative dye reduction as described in Mosaran, J. Imm. Methods 65:55-63 (1983).

[7] = system: human peripheral blood neutrophil leukocytes; test: Superoxide generation by human neutrophils
cells / HIV = test: Anti-tumor / anti-HIV (biological) action, general statement
calf thymus ADPRT = calf thymus ADPRT (Bos taurus, UniProt P18493); test: ADPRT polymerase activity inhibition/inactivation (I50)
Sequence of calf thymus ADPRT (P18493 whole entry): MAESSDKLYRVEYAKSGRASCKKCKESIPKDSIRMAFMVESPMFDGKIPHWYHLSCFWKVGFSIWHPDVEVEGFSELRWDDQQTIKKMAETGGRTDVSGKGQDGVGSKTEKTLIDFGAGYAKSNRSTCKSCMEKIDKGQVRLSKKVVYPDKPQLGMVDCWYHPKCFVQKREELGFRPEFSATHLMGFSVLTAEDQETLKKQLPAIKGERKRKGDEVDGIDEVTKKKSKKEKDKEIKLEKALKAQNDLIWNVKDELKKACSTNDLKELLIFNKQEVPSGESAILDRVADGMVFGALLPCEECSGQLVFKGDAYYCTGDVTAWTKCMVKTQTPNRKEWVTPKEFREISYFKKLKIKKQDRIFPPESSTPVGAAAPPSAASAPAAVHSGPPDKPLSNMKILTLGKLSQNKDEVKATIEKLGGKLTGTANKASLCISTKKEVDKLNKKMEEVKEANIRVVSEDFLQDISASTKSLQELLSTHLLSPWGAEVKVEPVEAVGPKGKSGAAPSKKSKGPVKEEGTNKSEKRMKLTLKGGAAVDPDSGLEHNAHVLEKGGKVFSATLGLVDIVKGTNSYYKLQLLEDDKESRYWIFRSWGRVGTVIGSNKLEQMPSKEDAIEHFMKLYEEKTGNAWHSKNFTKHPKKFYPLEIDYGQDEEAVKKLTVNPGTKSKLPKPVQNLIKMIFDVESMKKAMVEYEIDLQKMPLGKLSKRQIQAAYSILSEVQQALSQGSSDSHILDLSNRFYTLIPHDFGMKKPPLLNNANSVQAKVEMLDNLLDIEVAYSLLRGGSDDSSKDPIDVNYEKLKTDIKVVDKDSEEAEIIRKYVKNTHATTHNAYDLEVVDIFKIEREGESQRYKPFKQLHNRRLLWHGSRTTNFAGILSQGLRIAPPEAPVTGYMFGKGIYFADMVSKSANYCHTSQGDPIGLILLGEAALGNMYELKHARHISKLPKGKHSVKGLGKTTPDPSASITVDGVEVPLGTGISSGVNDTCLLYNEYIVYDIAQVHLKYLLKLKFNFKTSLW
Description: The compounds of the subject invention were tested for their ability to inactivate the polymerase activity of adenosinediphosphoribosyl transferase (ADPRT). Assays were performed according to the method of Buki and Kun, Biochem. 27:5990-5995 (1988), using calf thymus ADPRT.
Assay conditions: ADPRT, 0.4 μg; coDNA, 4 μg; inhibitor diluted
between 0.8 and 600 μM, in 50 μl of 50 mM TrisHCl, 50 mM KCl, 5 mM
2mercaptoethanol, 0.5 mM EDTA, 0.1 mM NAD ([32Plabelled), pH 7.5.
Polymerization at 25° C. for 4 minutes.

With `NC(=O)c1cccc(N=O)c1` [NOBA, 3-nitrosobenzamide] the “inhibition of 3H-thymidine uptake, in words” value ([1]; 10 μM, 855-2, H9, HL-60, K562 cells) was “powerfully inhibited 3H-thymidine uptake”, the “molar concentrations needed to inhibit 3H-thymidine uptake, in words” value ([1]; each of the cell lines tested) was “able to inhibit 3H-thymidine uptake in lower molar concentrations than the other compounds” and the “Virus Titer (log ID50), 10 days” value (HIV-1) was 1.05 log ID50. For the same compound, the “zinc ejection and loss of nucleic acid binding, in words” value [2] was “ejection of zinc with concomitant dissociation of the zinc finger nucleic acid complex; also recorded: NOBA-induced zinc ejection leads to loss of high-affinity nucleic acid binding function”, the “inhibition of thymidine uptake, H9” value (H9 cells; 250 μM) was “almost complete inhibition” and the inhibition at 10 µM (H9 cells; Homo sapiens, H9, 10 μM) was about 75%. The inhibition at 100 µM (H9 cells; Homo sapiens, H9, 100 μM) was about 85%, the “colony formation, 855-2, in words” value (855-2 cells [3]) was “inhibit the ability of human leukemic cells (855-2 and HL-60) to form colonies” and the “growth arrest of 855-2 cells at increasing serum concentration” value (855-2 cells [4]; 10 μM, increasing FCS) was “Growth arrest occurs irrespective of the concentration of FCS”. For the same compound, the “relative potency, 855-2” value (855-2 cells [4]; 10% fetal bovine serum) was “potent inhibitory effects regardless of the source of growth factor activity”, the “Zinc Loss” value ([5]; 3,000 μM, 2 h, 37° C.) was 52% and the “Zinc, NOBA-Treated Sample” value ([5]; 3,000 μM, 2 h, 37° C., control 0.21) was 0.11 µg/mL. The “Zinc Loss” value ([5]; 6,000 μM, 4 h, 37° C.) was 83%, the “Zinc, NOBA-Treated Sample” value ([5]; 6,000 μM, 4 h, 37° C., control 0.24) was 0.04 µg/mL and the “losses of the viral zinc” value ([5]; 3000 or 6000 μM, 37° C.) was 50-83%. The “infectivity of HIV-1 virions, in words” value ([5]; concentrated suspensions (60×)) was “complete loss of infectivity”, the “loss of viral proteins in the pellet, in words” value ([5]; p24 and gp120 competition RIA, SDS-PAGE) was “No significant loss of viral proteins” and the “colony formation, HL-60, in words” value (HL-60 cells) was “inhibit the ability of human leukemic cells (855-2 and HL-60) to form colonies”. For the same compound, the “effect on normal stem cell colony formation (FIG. 5), in words” value ([6]; anti-leukemic doses, soft agar, rhesus bone marrow or human peripheral blood stem cells) was “minimal effect on normal cells”, the “effect on viability of normal cells, in words” value ([6]; tumor cell inhibitory concentrations) was “not to affect adversely the viability of normal cells” and the log reduction at 100 µM (HIV-1 (LAV strain); Human immunodeficiency virus 1, 0.5 h, 100 μM, 30 min, 22° C., 9 days, read-out: decrease of infectious virus available to cause 50% infected cultures) was 4. For the same compound, the “relative depression of HIV-1 propagation, in words” value (HIV-1 (LAV strain); NOBA vs NOBP) was “greater depression of HIV-1 propagation”, the “temperature of maximal inactivation of HIV-1” value (HIV-1 (LAV strain); preincubation at 0°, 22° and 37° C.) was 37 °C and the “superoxide generation by human neutrophils (mean + S.D., n = 11)” value ([7]; 10 μM, 10^5 PMN + PMA (control 55.9 ± 7.7)) was 44.4 ± 10.0 nmol O2^- /hr/10^5 cells. The “superoxide generation, in words” value ([7]; 10 μm) was “Only minor reductions in superoxide generation”, the “anti-tumor and anti-HIV activity, in words” value (cells / HIV) was “highly active as anti-tumor and anti-HIV molecules” and the “effectiveness after short exposure of cells” value (cells / HIV; exposure as short as 30 minutes) was “effective even after exposure of cells for a period as short as 30 minutes”. The IC50 (calf thymus ADPRT) was 15 µM.
